Experimental findings from patent US7250423B2, “Methods for synthesizing heterocycles and therapeutic use of the heterocycles for cancers” (priority 2001, dated 2007) are described below.

Assay type in all cases: cell-based, human
For one experiment, the system named is SF-268 (CNS). Put plainly: 3-cell line, one dose primary anticancer assay (NCI). The following applies: 1.000E−04 Molar, 48 hours, percent of growth vs untreated control cells; negative numbers indicate cell kill. As to the method: (§1) The following cell culture tests were performed by the National Cancer Institute of the National Institute of Health. The compounds listed below have been evaluated in the 3-cell line, one dose primary anticancer assay. The compounds which pass our criteria for activity in this assay will be scheduled automatically for evaluation against the full panel of 60 tumor cell lines. For the past 10 years, the Development Therapeutic Program (DTP), Division of Cancer Treatment and Diagnosis (DCTD), National Cancer Institute (NCI) has used an in vitro model consisting of 60 human tumor cell lines as the primary anticancer screen [Ref: J. Natl, Cancer Inst., 83:757-766, 1991].
(§2) 95% of the actives from the 60 cell line screen can be identified using only three cell lines. For this reason, the DTP has now begun using, as its primary anticancer assay, a 3-cell line panel consisting of the MCF7 (Breast), NCI-H460 (Lung), and SF-268 (CNS). This 3-cell line, one-dose assay has been in use by DTP for several years for the evaluation of combinatorial libraries and has proven to be an effective pre-screen.
(§3) In the current protocol, each cell line is inoculated and preincubated on a microtiter plate. Test agents are then added at a single concentration and the culture incubated for 48 hours. End-point determinations are made with alamar blue (Biotechniques 21(5) 780-782 (1996)). Results for each test agent are reported as the percent of growth of the treated cells when compared to the untreated control cells. Compounds which reduce the growth of any one of the cell lines to approximately 32% or less (negative numbers indicate cell kill) are passed on for evaluation in the full panel of 60 cell lines over a 5-log dose range.

Experiment [1] concerns NCI-H460 (Non Small Cell Lung). Described as above. Conditions: 1.000E−04 Molar, 48 hours, percent of growth vs untreated control cells; negative numbers indicate cell kill. As to the method:
as §1, §2, §3

Another experiment relates to MCF7 (Breast). The description is as above. The following applies: 1.000E−04 Molar, 48 hours, percent of growth vs untreated control cells; negative numbers indicate cell kill. The method, then: as §1, §2, §3
A further experiment deals with SF-539 (CNS cancer). Put plainly: 60 cell-line tests. The following applies: even at 1.000E-08 molar concentration. As to the method:
as §1, §3

The test system of a further experiment is other cell lines. The experiment can be described thus: 60 cell-line tests. The following applies: other cell lines of the 60 cell-line panel. The method, then:
as §1, §3

In experiment [2] the test system is MDA-MB-435 (breast cancer). Put plainly: 60 cell-line tests. Conditions: even at 1.000E-08 molar concentration. The method, then:
as §1, §3

Experiment [3] deals with EKVX (non-small cell lung cancer). The experiment can be described thus: 60 cell-line tests. Conditions: even at 1.000E-08 molar concentration. As to the method:
as §1, §3

In the next experiment the test system is Delta cancer cell lines. Put plainly: 60 cell-line tests. As to the method: as §1, §3
Another experiment has as its system PC-3 (prostate cancer). The experiment can be described thus: 60 cell-line tests. The method, then: as §1, §3
The subject of the next experiment is DU-145 (prostate cancer). The experiment can be described thus: 60 cell-line tests. The following applies: even at 1.000E-08 molar concentration. The method, then:
as §1, §3

The subject of the next experiment is HCT (colon cancer). The experiment can be described thus: 60 cell-line tests. As to the method: as §1, §3
The subject of experiment [4] is NCI-H522 (non-samll cell lung cancer). The experiment can be described thus: 60 cell-line tests. The method, then: as §1, §3
In experiment [5] the test system is CCRF-CEM (and other leukemia cancer cells). The experiment can be described thus: 60 cell-line tests. The method, then: as §1, §3
In a further experiment the test system is CAKI-1 (renal cancer). The experiment can be described thus: 60 cell-line tests. As to the method:
as §1, §3

In the case of “6,6a,7,8-tetrahydro-7-(2-o-hydroxyphenyl)ethyl-2H-benzopyrano[3,2-a]quinoline [4-1]”, the “Growth Percentage (CNS) SF-268” value in the experiment on SF-268 (CNS) was found to be 0%. Besides, in [1], the “Growth Percentage (Non Small Cell Lung) NCI-H460” value came out at 0%. The “Growth Percentage (Breast) MCF7” value in the experiment with MCF7 (Breast) is 0%.

With `OCCCCC1Nc2ccc(Nc3ccccc3)cc2C2OCCCC12` (stereo not shown) [3-1, 3,4,4a,5,6,10b-hexahydro-5-(4-hydroxybutyl)-9-phenylamino-2H-pyrano[3,2-c]quinoline], the “killing of cancer cells” value is “highly potent and selectively killed” in the experiment on SF-539 (CNS cancer); “highly potent and selectively killed” in experiment [2]; “highly potent and selectively killed” in experiment [3]; “highly potent and selectively killed” in the experiment with Delta cancer cell lines (Delta cancer cell lines, even at 1.000E-08 molar concentration); “highly potent and selectively killed” in the experiment with PC-3 (prostate cancer) (even at 1.000E-08 molar concentration); “highly potent and selectively killed” in the experiment on DU-145 (prostate cancer). Further, in the experiment on other cell lines, the “effect against other cell lines” value was “very week effect”. The “Growth Percentage (CNS) SF-268” value in the experiment with SF-268 (CNS) is −1%. Further, the “Growth Percentage (Non Small Cell Lung) NCI-H460” value in experiment [1] is −1%. The “Growth Percentage (Breast) MCF7” value with MCF7 (Breast) was −1%.

As for `OCCCC1Nc2ccc(Nc3ccccc3)cc2C2OCCC12` (stereo not shown) [3-2, 2,3,3a,4,5,9b-hexahydro-4-(3-hydroxypropyl)-8-phenylamino-furano[3,2-c]quinoline], in the experiment with SF-268 (CNS), the “Growth Percentage (CNS) SF-268” value was 22%. The “Growth Percentage (Non Small Cell Lung) NCI-H460” value in [1] is recorded as 57%. Moreover, the “Growth Percentage (Breast) MCF7” value with MCF7 (Breast) stood at 0%.

In the case of `CN(C)c1ccc2c(c1)C1OCCC1C(CCCO)N2` (stereo not shown) [3-3, 2,3,3a,4,5,9b-hexahydro-4-(3-hydroxypropyl)-8-dimethylamino-furano[3,2-c]quinoline], the “Growth Percentage (CNS) SF-268” value with SF-268 (CNS) worked out at 77%. The “Growth Percentage (Non Small Cell Lung) NCI-H460” value in experiment [1] is on record as 100%. Also, the “Growth Percentage (Breast) MCF7” value in the experiment on MCF7 (Breast) was 7%.

Regarding `OCCCCC1Nc2ccc(O)cc2C2OCCCC12` (stereo not shown) [5-1, 3,4,4a,5,6,10b-hexahydro-5-(4-hydroxybutyl)-9-hydroxy-2H-pyrano[3,2-c]quinoline], the “selectivity for cancer cells” value with HCT (colon cancer) is given as “moderately selective”; in experiment [4], “moderately selective”; in experiment [5], “moderately selective”; in the experiment with Delta cancer cell lines (Delta cancer), “highly selective”; in the experiment on CAKI-1 (renal cancer) it was “moderately selective”; in the experiment with PC-3 (prostate cancer), “highly selective”. Besides, the “Growth Percentage (CNS) SF-268” value in the experiment on SF-268 (CNS) came to 2%. Further, the “Growth Percentage (Non Small Cell Lung) NCI-H460” value in experiment [1] is reported as 29%. The “Growth Percentage (Breast) MCF7” value in the experiment on MCF7 (Breast) worked out at 0%.
